This is an account of results in publication PMC7466040, “Sevanol and Its Analogues: Chemical Synthesis, Biological Effects and Molecular Docking” (Pharmaceuticals, 2020).

The structures appear in SMILES notation.

Assay [1] has as its system ASIC1a-containing channels. The arrangement: method as in PMID 11588175. The settings on record: read-out: IC50, inhibition of ASIC1a-containing channels; cited from earlier work.
The subject of assay [2] is ASIC currents. The arrangement: method as in PMID 16061325. The settings on record: read-out: IC50, non-selective inhibition of ASIC currents; cited from earlier work.
Assay [3] relates to all of the functional isoforms of ASICs. The arrangement: method as in PMID 9261094. The settings on record: read-out: IC50, inhibition of ASICs; cited from earlier work.
Assay [4] concerns the target T1, rat ASIC1a (Rattus norvegicus, UniProt P55926).
T1 construct: expressed in transfected cells; host or cells: Xenopus laevis oocytes (cRNA injection)
T1 sequence (P55926 1-526): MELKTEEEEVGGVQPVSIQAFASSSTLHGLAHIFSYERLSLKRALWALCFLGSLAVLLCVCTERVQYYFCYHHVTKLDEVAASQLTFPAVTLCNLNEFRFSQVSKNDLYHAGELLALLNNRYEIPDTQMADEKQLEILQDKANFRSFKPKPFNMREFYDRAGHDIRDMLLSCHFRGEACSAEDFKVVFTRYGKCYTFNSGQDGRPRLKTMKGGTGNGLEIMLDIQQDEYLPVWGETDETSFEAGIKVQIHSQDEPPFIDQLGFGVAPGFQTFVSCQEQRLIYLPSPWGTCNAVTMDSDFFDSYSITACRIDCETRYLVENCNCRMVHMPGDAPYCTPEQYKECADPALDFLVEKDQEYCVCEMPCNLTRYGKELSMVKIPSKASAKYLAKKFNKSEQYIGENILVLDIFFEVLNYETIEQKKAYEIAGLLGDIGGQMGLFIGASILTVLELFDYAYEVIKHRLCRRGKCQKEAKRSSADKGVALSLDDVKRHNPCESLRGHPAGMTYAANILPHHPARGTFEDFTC
Description: Two-electrode voltage clamp on X. laevis oocytes expressing rat ASIC1a. The format is cell-based. The settings on record: for IC50: X. laevis oocytes, pH drop 7.4 to 5.5, holding potential −50 mV, mean ± SEM of 5–6, read-out: IC50, inhibition of ASIC1a current; for maximal current block, ASIC1a: effect reversible. The protocol: (§1) Testing the activity of synthetic sevanol (s706) (as a mixture of 75% of sevanol and 25% of isosevanol) and its analogues (s590, EA, and s788) was carried out by the standard two-electrode voltage clamp method on X. laevis oocytes expressing rat ASIC1a and ASIC3 channels. The activation of the channels was performed using a rapid change of the solution from conditioning pH 7.4 to a solution with pH 5.5. Sevanol and its two analogues, s590 and EA, inhibited ASIC1a and ASIC3 channels.
(§2) Oocytes were harvested from female frogs anaesthetized with tricaine methane sulfonate (MS222) (0.17% solution), and the surgery was performed in an ice bath to avoid heavy bleeding. Defolliculated stage IV and V cells were injected with 2.5 and 10 ng cRNA, synthesized from PCi plasmids containing the rat ASIC1a and rat ASIC3 isoforms, respectively, using the Nanoliter 2000 microinjection system (World Precision Instruments, USA). The injected oocytes were kept for 2–3 days at 17 to 19 °C, and then for up to 5 days at 15 °C in a ND96 medium containing (in mM) 96 NaCl, 2 KCl, 1.8 CaCl2, 1 MgCl2, and 5 HEPES titrated to pH 7.4 with NaOH supplemented with gentamycin (50 μg/mL). Two-electrode voltage clamp recordings were performed at a holding potential of −50 mV using a GeneClamp 500 amplifier (Axon Instruments), and the data were filtered at 20 Hz and digitized at 100 Hz by an AD converter L780 (LCard, Russia). Microelectrodes were filled with 3 M KCl. The conditioning bath solution was ND96; the pH was adjusted to 7.4. The activating test solution was constructed based on the ND-96 buffer, in which 5 mM HEPES was replaced with 10 mM MES and pH was adjusted to 5.5. A computer-controlled valve system was used to achieve a rapid solution exchange in the recording chamber. A four parameter logistic equation was used for the curve-fitting analysis: F(x) = ((a1 − a2)/(1 + (x/x0)n)) + a2, where x is the concentration of the compound; F(x) is the response value at a given concentration of the compound; a1 is the control response value (fixed at 100%); x0 is the IC50 value; n is the Hill coefficient (slope factor); and a2 is the response value at the maximal inhibition (% of control).
(§3) Figure 2 The inhibitory activity of sevanol (s706) and its analogues. Currents were elicited by a drop from pH 7.4 to 5.5; the holding potential was −50 mV; (A,C) are dose–response curves for s706, s590 and EA inhibitory effects on ASIC1a and ASIC3 channels, respectively; (B,D) are reciprocal IC50 values for s706, s590 and EA inhibitory effects on ASIC1a and ASIC3 channels, respectively. The data were fitted by the logistic equation. Each point is the mean ± SEM of 5–6 measurements. * p < 0.05, ** p < 0.005.

For assay [5], the target named is T2, rat ASIC3 (Rattus norvegicus, UniProt O35240).
T2 construct: expressed in transfected cells; host or cells: Xenopus laevis oocytes (cRNA injection)
T2 sequence (O35240 1-533): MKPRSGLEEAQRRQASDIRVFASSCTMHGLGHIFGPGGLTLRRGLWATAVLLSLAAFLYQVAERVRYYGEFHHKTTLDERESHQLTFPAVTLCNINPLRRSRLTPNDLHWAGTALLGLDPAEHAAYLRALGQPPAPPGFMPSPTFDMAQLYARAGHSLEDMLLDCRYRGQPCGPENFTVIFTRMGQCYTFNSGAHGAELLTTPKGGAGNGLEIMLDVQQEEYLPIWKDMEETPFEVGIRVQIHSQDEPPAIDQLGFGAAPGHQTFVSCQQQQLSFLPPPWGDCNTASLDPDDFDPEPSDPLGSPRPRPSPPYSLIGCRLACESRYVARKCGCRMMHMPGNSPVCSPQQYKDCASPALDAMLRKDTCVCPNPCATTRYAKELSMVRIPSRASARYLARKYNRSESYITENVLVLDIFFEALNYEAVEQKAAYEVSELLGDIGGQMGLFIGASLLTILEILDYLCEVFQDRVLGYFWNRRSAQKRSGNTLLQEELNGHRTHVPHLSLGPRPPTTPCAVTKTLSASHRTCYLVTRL
Description: Two-electrode voltage clamp on X. laevis oocytes expressing rat ASIC3. The format is cell-based. The settings on record: for IC50: X. laevis oocytes, pH drop 7.4 to 5.5, holding potential −50 mV, mean ± SEM of 5–6, read-out: IC50, inhibition of ASIC3 current; for maximal current block, ASIC3: effect reversible. As to the method:
as §1, §2, §3
Background: Two-electrode voltage clamp is typically applied to oocytes expressing channels or transporters.

Assay [6] has as its system ASIC1a. The arrangement: method as in PMID 25196733. The settings on record: cited from earlier work.
The subject of assay [7] is ASIC3-containing channels. The arrangement: method as in PMID 11588175. The settings on record: read-out: IC50, inhibition of ASIC3-containing channels; cited from earlier work.

Turning to `CC(C(=O)O)c1ccc(-c2ccccc2)c(F)c1` (stereo not shown) [flurbiprofen], the IC50 (in general, the midpoint of a concentration-inhibition curve) in assay [1] was 350 µM.
Turning to `CC(C)C1c2cc(C3CC3c3ccc4cc(C(=N)N)ccc4c3)ccc2CCN1C` (stereo not shown) [A-317567], the IC50 in assay [2] was 2 to 30 µM.
As to `N=C(N)NC(=O)c1nc(Cl)c(N)nc1N` [Amiloride], in assay [3], the IC50 is 10 to 60 µM.
For `CC(C)Cc1ccc(C(C)C(=O)O)cc1` (stereo not shown) [ibuprofen], the IC50 in assay [1] was 350 µM.
Turning to `COC(=O)CC(C(=O)OC)C(OC(=O)C1=Cc2cc(O)c(O)cc2C(c2ccc(O)c(O)c2)C1C(=O)OC(C(=O)OC)C(CC(=O)OC)C(=O)OC)C(=O)OC` (stereo not shown) [s788, Hexamethyl1,1′-((1-(3,4-dihydroxyphenyl)-6,7-dihydroxy-1,2-dihydronaphthalene-2,3-dicarbonyl)bis(oxy))bis(propane-1,2,3-tricarboxylate)], the “activity on ASIC1a channel” value in assay [4] (pH 7.4 to 5.5) is recorded as “did not demonstrate any activity”. Further, the “activity on ASIC3 channel” value in assay [5] (pH 7.4 to 5.5) is on record as “did not demonstrate any activity”.
As for `CC12CC3CC(C)(C1)CC(N)(C3)C2` [memantine], in assay [6], the “inhibition of ASIC1a” value is “inhibit ASIC1a in submillimolar concentrations”.
For the compound `Nc1c2ccccc2nc2ccccc12` [9-aminoacridine], the “inhibition of ASIC1a” value in assay [6] was “inhibit ASIC1a in submillimolar concentrations”.
As for `CC(=O)Oc1ccccc1C(=O)O` [aspirin], the IC50 in assay [7] was 260 µM.
For `O=C(O)Cc1ccccc1Nc1c(Cl)cccc1Cl` [diclofenac], the IC50 in assay [7] is 92 µM.
Turning to `O=C(O)CC(OC(=O)C1=Cc2cc(O)c(O)cc2C(c2ccc(O)c(O)c2)C1C(=O)OC(CC(=O)O)C(=O)O)C(=O)O` (stereo not shown) [s590, 2,2′-((1-(3,4-dihydroxyphenyl)-6,7-dihydroxy-1,2-dihydronaphthalene-2,3-dicarbonyl)bis(oxy))disuccinic acid], the IC50 in assay [4] was 297 ± 41 µM; in assay [5], 241 ± 25 µM. The “maximal current block, ASIC1a” value in assay [4] (pH 7.4 to 5.5) is reported as 100%. In addition, in assay [5] (pH 7.4 to 5.5), the “maximal current block, ASIC3” value was found to be 100%.
With `O=C(O)C1=Cc2cc(O)c(O)cc2[C@@H](c2ccc(O)c(O)c2)[C@@H]1C(=O)O` [EA, epiphyllic acid], the results for the IC50 in assay [4] and in assay [5] were 415 ± 66 µM and 424 ± 33 µM, respectively. In assay [4] (pH 7.4 to 5.5), the “maximal current block, ASIC1a” value was found to be 100%. Besides, the “maximal current block, ASIC3” value in assay [5] (pH 7.4 to 5.5) is 100%. Also, the “effectiveness in inhibiting ASIC3 relative to ASIC1a” value in assay [5] (ratio of ASIC1a and ASIC3 inhibition) is “acted equally on the ASIC1a and ASIC3 channels”.
